Laboratory results published in ChEMBL document CHEMBL4706474, “Tetrahydro-2-naphthyl and 2-Indanyl Triazolopyrimidines Targeting Plasmodium falciparum Dihydroorotate Dehydrogenase Display Potent and Selective Antimalarial Activity” (J Med Chem, 2016).
Values after ≈ are worked out from the molar mass of the structure shown.

Columns and labels:
[1] = Unbound clearance in Sprague-Dawley rat at 1.8 mg/kg, iv administered as infusion for 10 mins by LC-MS analysis; type: ADME, organism-based; conditions: in vivo
[2] = Tmax in Sprague-Dawley rat at 21.3 mg/kg, po measured over 24 hrs by LC-MS analysis; type: ADME, organism-based; conditions: in vivo
[3] = AUC (0 to infinity) in Sprague-Dawley rat at 21.3 mg/kg, po measured over 24 hrs by LC-MS analysis; type: ADME, organism-based; design: route oral, dose 21.3 mg/kg, time >24; conditions: in vivo
[4] = Unbound AUC (0 to infinity) in Sprague-Dawley rat at 1.8 mg/kg, iv by LC-MS analysis; type: ADME, organism-based; conditions: in vivo
[5] = Solubility of compound in FeSSIF at pH 5 measured after 5 to 6 hrs by HPLC-UV based analysis; type: physicochemical; conditions: simulated gi fluid, time 5-6 hrs
[6] = Tmax in Swiss mouse at 20 mg/kg, po administered as single dose via gavage measured over 24 hrs by LC-MS analysis; type: ADME, organism-based; conditions: in vivo
[7] = Cmax in Swiss mouse at 20 mg/kg, po administered as single dose via gavage measured over 24 hrs by LC-MS analysis; type: ADME, organism-based; design: route oral, dose 20 mg/kg, time >24; conditions: in vivo
[8] = Apparent half-life in rat Sprague-Dawley at […], iv administered as infusion for 10 mins by LC-MS analysis; type: ADME, organism-based; conditions: in vivo, dose 1.6 mg/kg
[9] = AUC (0 to infinity) in Sprague-Dawley rat at 17.5 mg/kg, po measured over 24 hrs by LC-MS analysis; type: ADME, organism-based; design: route oral, dose 17.5 mg/kg, time >24; conditions: in vivo
[10] = Unbound AUC (0 to infinity) in Sprague-Dawley rat at […], iv by LC-MS analysis; type: ADME, organism-based; conditions: in vivo, dose 1.6 mg/kg

SMILES | CL free [1] [mL/min/kg] | Tmax [2] [h] | AUC(0-inf) [3] [µM·h] | fAUC [4] [µM·h] | solubility [5] [µg/mL] | Tmax [6] [h] | Cmax [7] [µM] | t1/2(app) [8] [h] | AUC [9] [µM·h] | fAUC [10] [µM·h]
Cc1cc(NC2Cc3cc(F)c(F)cc3C2)n2nc(C(C)(F)F)nc2n1 | 52 | 4 | 202 | 1.57 |  |  |  |  |  | 
Cc1cc(N[C@H]2CCc3ccc(Cl)cc3C2)n2nc(C(C)(F)F)nc2n1 |  |  |  |  | 36 (≈ 95.3 µM) | 1 | 5 | 5.9 | 24.6 | 0.12
